Data published in patent publication US20260306680A1, “RADIOLABELED COMPOUNDS TARGETING THE PROSTATE-SPECIFIC MEMBRANE ANTIGEN” (PROVINCIAL HEALTH SERVICES AUTHORITY, priority 2022, published 2026).
Like-named read-outs stand apart in the source and are kept apart here.

Experiments:
[1] = Ex vivo biodistribution in mice bearing LNCaP tumor xenografts; parameters: species or system mouse (male NOD-scid IL2Rg^null (NSG)); conditions: mouse, iv, mean ± SD
Protocol: (§1) All imaging and biodistribution studies used male NOD-scid IL2Rg^null (NSG) mice and conducted according to the guidelines established by the Canadian Council on Animal Care and approved by Animal Ethics Committee of the University of British Columbia. For tumor inoculations, mice were anesthetized via inhalation of 2% isoflurane in oxygen and implanted subcutaneously with 5×10^6 LNCaP cells below the left shoulder. Imaging and biodistribution studies were performed only after tumors grew to 5-8 mm in diameter.
(§2) For PET/CT imaging studies, approximately 5 MBq of the ^18F-labeled tracer was injected through the tail vein. While for ex vivo biodistribution studies, mice were injected with around 2 MBq of the ^18F-labeled tracer through the tail vein. Mice were allowed to recover and roam freely in the cages after injecting the tracer. At 45 min post-injection, imaging mouse were sedated again and positioned on the scanner. A 10 min CT scan was conducted first to allow for localization and attenuation correction for later reconstruction of PET images. A 10 min PET image was acquired following CT scan. Heating pads were used during the entire procedure to keep the mice warm and circulate the blood. At 1 h post-injection, all mice for biodistribution study were euthanized with blood drawn from heart, and all tissues of interest were collected, rinsed with PBS, blotted dry, weighed, and counted using an automated gamma counter. The uptake in each organ/tissue was normalized to the injected dose and expressed as the percentage of the injected dose per gram of tissue (% ID/g).
(§3) Representative maximum intensity projection PET images of ^18F-KLF1007-pyridine-BF3 and ^18F-KL01040 acquired at 1 h post-injection from LNCaP tumor-bearing mice is enumerated in Table 4 and shown in FIG. 1. Representative maximum intensity projection PET images of ^18F-KL01120 and ^18F-KL01130 acquired at 1 h post-injection from LNCaP tumor-bearing mice is also enumerated in Table 5 and shown in FIG. 2 (^18F-KL1120) and enumerated in Table 6 and shown in FIG. 3 (^18F-KL01130).

LNCaP tumor xenografts = test: as above; parameters: species or system mouse (male NOD-scid IL2Rg^null (NSG)); conditions: mean ± SD
Protocol: as §1, §2, §3

[2] = 1 h Blocked (co-injection of 2-PMPA, 0.5 mg)

O=C(O)CC[C@H](NC(=O)N[C@@H](CCCCNC(=O)[C@H](Cc1c2ccccc2cc2ccccc12)NC(=O)[C@H]1CC[C@H](CNC(=O)[C@H](CCNC(=O)c2ccc(F)nc2)NC(=O)CCC(=O)N(CC(=O)O)CC(=O)O)CC1)C(=O)O)C(=O)O [^18F-KL01120]
tissue uptake at 1 h ([1]; adrenal glands, 1 h Blocked (co-injection of 2-PMPA, 0.5 mg), read-out: Adrenal Glands uptake): 0.48 ± 0.21 %ID/g | tissue uptake at 1 h ([1]; adrenal glands, 1 h post-injection, read-out: Adrenal Glands uptake): 11.2 ± 4.71 %ID/g | tissue uptake at 1 h ([1]; blood, 1 h Blocked (co-injection of 2-PMPA, 0.5 mg), read-out: Blood uptake): 0.86 ± 0.2 %ID/g | tissue uptake at 1 h ([1]; blood, 1 h post-injection, read-out: Blood uptake): 0.71 ± 0.14 %ID/g | tissue uptake at 1 h ([1]; bone, 1 h Blocked (co-injection of 2-PMPA, 0.5 mg), read-out: Bone uptake): 0.35 ± 0.23 %ID/g | tissue uptake at 1 h ([1]; bone, 1 h post-injection, read-out: Bone uptake): 0.92 ± 0.46 %ID/g | tissue uptake at 1 h ([1]; brain, 1 h Blocked (co-injection of 2-PMPA, 0.5 mg), read-out: Brain uptake): 0.03 %ID/g | tissue uptake at 1 h ([1]; brain, 1 h post-injection, read-out: Brain uptake): 0.05 ± 0.01 %ID/g | tissue uptake at 1 h ([1]; fat, 1 h Blocked (co-injection of 2-PMPA, 0.5 mg), read-out: Fat uptake): 0.18 ± 0.05 %ID/g | tissue uptake at 1 h ([1]; fat, 1 h post-injection, read-out: Fat uptake): 1.57 ± 0.55 %ID/g | tissue uptake at 1 h ([1]; heart, 1 h Blocked (co-injection of 2-PMPA, 0.5 mg), read-out: Heart uptake): 0.35 ± 0.06 %ID/g | tissue uptake at 1 h ([1]; heart, 1 h post-injection, read-out: Heart uptake): 2.9 ± 0.66 %ID/g | tissue uptake at 1 h ([1]; kidneys, 1 h Blocked (co-injection of 2-PMPA, 0.5 mg), read-out: Kidneys uptake): 4.29 ± 1.34 %ID/g | tissue uptake at 1 h ([1]; kidneys, 1 h post-injection, read-out: Kidneys uptake): 88.1 ± 17.4 %ID/g | tissue uptake at 1 h ([1]; lacrimal glands, 1 h Blocked (co-injection of 2-PMPA, 0.5 mg), read-out: Lacrimal Glands uptake): 0.07 ± 0.05 %ID/g | tissue uptake at 1 h ([1]; lacrimal glands, 1 h post-injection, read-out: Lacrimal Glands uptake): 0.06 ± 0.03 %ID/g | tissue uptake at 1 h ([1]; large intestine, 1 h Blocked (co-injection of 2-PMPA, 0.5 mg), read-out: Large Intestine uptake): 0.25 ± 0.1 %ID/g | tissue uptake at 1 h ([1]; large intestine, 1 h post-injection, read-out: Large Intestine uptake): 1.11 ± 0.42 %ID/g | tissue uptake at 1 h ([1]; liver, 1 h Blocked (co-injection of 2-PMPA, 0.5 mg), read-out: Liver uptake): 0.59 ± 0.1 %ID/g | tissue uptake at 1 h ([1]; liver, 1 h post-injection, read-out: Liver uptake): 2.64 ± 0.57 %ID/g | tissue uptake at 1 h ([1]; lncap tumor, 1 h Blocked (co-injection of 2-PMPA, 0.5 mg), read-out: LNCaP Tumor uptake): 1.87 ± 0.46 %ID/g | tissue uptake at 1 h ([1]; lncap tumor, 1 h post-injection, read-out: LNCaP Tumor uptake): 6.21 ± 1.25 %ID/g | tissue uptake at 1 h ([1]; lungs, 1 h Blocked (co-injection of 2-PMPA, 0.5 mg), read-out: Lungs uptake): 0.81 ± 0.18 %ID/g | tissue uptake at 1 h ([1]; lungs, 1 h post-injection, read-out: Lungs uptake): 4.1 ± 0.71 %ID/g | tissue uptake at 1 h ([1]; muscle, 1 h Blocked (co-injection of 2-PMPA, 0.5 mg), read-out: Muscle uptake): 0.27 ± 0.18 %ID/g | tissue uptake at 1 h ([1]; muscle, 1 h post-injection, read-out: Muscle uptake): 0.9 ± 0.2 %ID/g | tissue uptake at 1 h ([1]; pancreas, 1 h Blocked (co-injection of 2-PMPA, 0.5 mg), read-out: Pancreas uptake): 0.27 ± 0.07 %ID/g | tissue uptake at 1 h ([1]; pancreas, 1 h post-injection, read-out: Pancreas uptake): 2.22 ± 0.66 %ID/g | tissue uptake at 1 h ([1]; salivary glands, 1 h Blocked (co-injection of 2-PMPA, 0.5 mg), read-out: Salivary Glands uptake): 0.35 ± 0.08 %ID/g | tissue uptake at 1 h ([1]; salivary glands, 1 h post-injection, read-out: Salivary Glands uptake): 9.18 ± 2.36 %ID/g | tissue uptake at 1 h ([1]; seminal gland, 1 h Blocked (co-injection of 2-PMPA, 0.5 mg), read-out: Seminal Gland uptake): 0.76 ± 0.19 %ID/g | tissue uptake at 1 h ([1]; seminal glands, 1 h post-injection, read-out: Seminal Glands uptake): 0.98 ± 0.42 %ID/g | tissue uptake at 1 h ([1]; small intestine, 1 h Blocked (co-injection of 2-PMPA, 0.5 mg), read-out: Small Intestine uptake): 1.83 ± 0.37 %ID/g | tissue uptake at 1 h ([1]; small intestine, 1 h post-injection, read-out: Small Intestine uptake): 4.51 ± 0.87 %ID/g | tissue uptake at 1 h ([1]; spleen, 1 h Blocked (co-injection of 2-PMPA, 0.5 mg), read-out: Spleen uptake): 0.29 ± 0.03 %ID/g | tissue uptake at 1 h ([1]; spleen, 1 h post-injection, read-out: Spleen uptake): 22.1 ± 2.92 %ID/g | tissue uptake at 1 h ([1]; stomach, 1 h Blocked (co-injection of 2-PMPA, 0.5 mg), read-out: Stomach uptake): 0.14 ± 0.06 %ID/g | tissue uptake at 1 h ([1]; stomach, 1 h post-injection, read-out: Stomach uptake): 0.68 ± 0.17 %ID/g | tissue uptake at 1 h ([1]; testes, 1 h Blocked (co-injection of 2-PMPA, 0.5 mg), read-out: Testes uptake): 0.28 ± 0.07 %ID/g | tissue uptake at 1 h ([1]; testes, 1 h post-injection, read-out: Testes uptake): 0.92 ± 0.29 %ID/g | tissue uptake at 1 h ([1]; thyroid, 1 h Blocked (co-injection of 2-PMPA, 0.5 mg), read-out: Thyroid uptake): 0.33 ± 0.08 %ID/g | tissue uptake at 1 h ([1]; thyroid, 1 h post-injection, read-out: Thyroid uptake): 4.53 ± 0.74 %ID/g | Tumor:Muscle uptake ratio (LNCaP tumor xenografts; [2]): 9.96 ± 3.13 | Tumour:Blood uptake ratio (LNCaP tumor xenografts; [2]): 2.21 ± 0.46 | Tumour:Bone uptake ratio (LNCaP tumor xenografts; [2]): 8.46 ± 4.80 | Tumour:Kidney uptake ratio (LNCaP tumor xenografts; [2]): 0.45 ± 0.05 | Tumor:Muscle uptake ratio (LNCaP tumor xenografts; 1 h post-injection): 6.58 ± 1.38 | Tumour:Blood uptake ratio (LNCaP tumor xenografts; 1 h post-injection): 8.41 ± 2.02 | Tumour:Bone uptake ratio (LNCaP tumor xenografts; 1 h post-injection): 9.31 ± 3.39 | Tumour:Kidney uptake ratio (LNCaP tumor xenografts; 1 h post-injection): 0.07 ± 0.02
